# Entries after “also recorded” stand apart in the source; their conditions may differ.
# Experiments:
# [1] = test system: RMA-Rael cells; experiment: RMA-Rael viability following in vitro treatment; assay type: cell-based, mice; conditions: 24 h, doses given as 5-20 pM, vs solvent only
# From the text: FIGS. 5A-5I show the effects of SHIP1 inhibitor as a chemotherapeutic. […] FIG. 5D and FIG. 5E show the representative histograms and box-and-whisker plots of FasL expression by NK cells from C56BL/6 (p=0.0002; Unpaired t test with Welch's correction) or RAG1−/− (p<0.0001; Mann-Whitney U test) tumor challenged, SHIP inhibitor or vehicle treated hosts. […] (NK cells p=0.0192; Unpaired t test with Welch's correction. T cells p=0.0659; Mann-Whitney U test). Additionally, FIGS. 5A-5G show the analysis by flow cytometry on day 3 after hosts receive SHIP inhibitor or vehicle for two consecutive days. NK cells are defined as NK1.1+CD3ε−. The graphs are representative of at least two independent experiments with at least four SHIP inhibitor and vehicle treated mice. […] Viability is expressed as frequency at a given concentration expressed as a percentage of solvent only treated cells. The kill curve summarizes pooled data from three independent experiments using six replicate wells/concentration with mean ±SEM indicated (n=18 per group. One-way ANOVA with Dunnett's multiple comparisons. 0 pM vs. 20 pM Adjusted p value =0.0001. 0 pM vs. 15 pM Adjusted p value =0.0001. 0 pM vs. 10 pM Adjusted p value =0.0001. 0 pM vs. 7.5 pM Adjusted p value =0.0001. 0 pM vs. 5 pM Adjusted p value =0.0001). […]
# [2] = test system: CD8+ T cells; experiment: CD8 T cell activation (CD69) and degranulation (CD107a) after two-day in vivo treatment; parameters: species or system mice
# Procedure: FIGS. 3B-3E show activation of NK cells and T cells following exposure to the SHIP1 inhibitor 3AC in vivo. NK cells from two-day 3AC- or vehicle-treated mice were stimulated by incubation on uncoated plates, on plates coated with anti-NK1.1, anti-NKp46, or anti-NKG2D antibody, or on uncoated plates but in the presence of PMA and ionomycin. Representative flow plots (FIG. 3B) and box and whisker plots (FIG. 3C) show the frequency of NK cell production of IFNγ determined by intracellular flow cytometry. […] Anti-CD107a (LAMP-1) PE antibody was added for the final 5 hours of incubation. Degranulation of CD8+ T cells was determined by analysis of CD107a expression by flow cytometry. NK cells are defined as NK1.1+CD3ε− and CD8+ T cells as NK1.1-CD3ε+CD8+CD4−. Graphs are representative of at least two independent experiments with at least four 3AC- and vehicle-treated mice per group (FIGS. 3B-3C) or pooled data from two independent experiments is shown (FIGS. 3D-3F). FIG. 3C (unstim: n=4, p=0.0962, Unpaired t test with Welch's correction. NK1.1: n=4, p=0.0038, Two-tailed student's T test. NKG2D: n=4, p=0.0450, Two-tailed student's T test. NKp46: n=4, p=0.0144, Two-tailed student's T test. PMA: p=0.2945, Two-tailed student's T test). FIG. 3D (n=8, p=0.0153, Unpaired T test with Welch's correction). FIG. 3E (n=8, p=0.0009, Two-tailed student's T test) FIG. 3F (n=9, p=0.0083, Two-tailed student's T test).
# To determine if SHIP inhibitors are also capable of activating the other major type of cytotoxic lymphocyte the responsiveness of CD8 T cells following the same, short-term, 3AC treatment was examined.
# [3] = test system: NK cells and T cells; experiment: NK and T cell numbers, maturation and FasL expression by flow cytometry after two-day treatment; assay type: in vivo, mice
# From the text: FIGS. 5A-5I show the effects of SHIP1 inhibitor as a chemotherapeutic. […] FIG. 5D and FIG. 5E show the representative histograms and box-and-whisker plots of FasL expression by NK cells from C56BL/6 (p=0.0002; Unpaired t test with Welch's correction) or RAG1−/− (p<0.0001; Mann-Whitney U test) tumor challenged, SHIP inhibitor or vehicle treated hosts. […] (NK cells p=0.0192; Unpaired t test with Welch's correction. T cells p=0.0659; Mann-Whitney U test). Additionally, FIGS. 5A-5G show the analysis by flow cytometry on day 3 after hosts receive SHIP inhibitor or vehicle for two consecutive days. NK cells are defined as NK1.1+CD3ε−. The graphs are representative of at least two independent experiments with at least four SHIP inhibitor and vehicle treated mice. […] Viability is expressed as frequency at a given concentration expressed as a percentage of solvent only treated cells. The kill curve summarizes pooled data from three independent experiments using six replicate wells/concentration with mean ±SEM indicated (n=18 per group. One-way ANOVA with Dunnett's multiple comparisons. 0 pM vs. 20 pM Adjusted p value =0.0001. 0 pM vs. 15 pM Adjusted p value =0.0001. 0 pM vs. 10 pM Adjusted p value =0.0001. 0 pM vs. 7.5 pM Adjusted p value =0.0001. 0 pM vs. 5 pM Adjusted p value =0.0001).
# NK cells are able to directly kill target cells through several different mechanisms including both production of perforin and granzymes and induction of apoptosis via Fas-FasL signaling (Arase, H. et al., Fas-mediated cytotoxicity by freshly isolated natural killer cells. J Exp Med. (1995); 181: 1235-1238; Zamai, L. et al., Natural killer (NK) cell-mediated cytotoxicity: differential use of TRAIL and Fas ligand by immature and mature primary human NK cells. J Exp Med. (1998); 188: 2375-2380). […] SHIP1 was recently shown to be recruited to CD95/Fas to set a threshold for induction of Caspase 8, and thereby, a threshold for induction of apoptosis (Park, M. Y. et al., Impaired T-cell survival promotes mucosal inflammatory disease in SHIP1-deficient mice. Mucosal Immunol. (2014); 7: 1429-1439). This pathway might contribute to 3AC-mediated killing of lymphoma cells in a host-extrinsic fashion and, possibly, even to NK cell mediated clearance of tumor in vivo. To explore this possibility, whether 3AC induces FasL, the death ligand, on cytotoxic host cells present in the tumor site was examined. […] This is consistent with what has been previously reported with multiple myeloma, myeloid leukemias and T cell leukemia, and that others have recently reported in preB ALL (Park, M. Y. et al., Impaired T-cell survival promotes mucosal inflammatory disease in SHIP1-deficient mice. Mucosal Immunol. (2014); 7: 1429-1439; Brooks, R. et al., SHIP1 inhibition increases immunoregulatory capacity and triggers apoptosis of hematopoietic cancer cells. J Immunol. (2010); 184: 3582-3589; Fuhler, G. M. et al., Therapeutic potential of SH2 domain-containing inositol-5′-phosphatase 1 (SHIP1) and SHIP2 inhibition in cancer. Mol Med. (2012); 18: 65-75; Chen, Z. et al, Signalling thresholds and negative B-cell selection in acute lymphoblastic leukaemia. Nature. (2015)) . […] Therefore, the improved tumor clearance and survival following acute 3AC treatment in vivo may result from both a chemotherapeutic effect and enhanced immune control.
# [4] = splenic CD8+ T cells, two-day 3AC vs vehicle
smiles,measurement,setting,value
"CC(C)CCC[C@@H](C)[C@H]1CC[C@H]2[C@@H]3CCC4C[C@H](N)CC[C@]4(C)[C@H]3CC[C@]12C (stereo partly drawn) [Compound 3AC, 3-α-aminocholestane]",RMA-Rael viability (direct killing),[1],capable of directly killing RMA-Rael cells; also recorded: cytotoxic
same,percentage of activated CD8 T cells (CD69 expression),[2]; [4],significantly increased
same,surface expression of CD69 amongst CD8 T cells,[2]; [4],increased
same,LAMP-1 (CD107a) expression of CD8 T cells (degranulation),"[2]; splenic CD8 T cells, crosslinking of TcR and CD28 (anti-CD3, anti-CD28) overnight",increased frequency
same,"FasL expression, splenic NK cells","[3]; C57BL/6 mice, vs vehicle","small, but significantly increased frequency"
same,terminal maturation of the peripheral NK cell compartment,"[3]; spleen, naive or tumor challenged C57BL/6 hosts, vs vehicle",significantly increased
same,number of NK cells at the tumor site in the peritoneal cavity,"[3]; tumor challenged C57BL/6 hosts, vs vehicle",significantly increased
same,FasL expression of host NK cells and T cells at the tumor site,"[3]; tumor challenged hosts, vs vehicle",profound acquisition of FasL
same,number of splenic NK cells,[3]; two days of treatment vs vehicle,decreased numbers

# From patent publication US11952328B2, “Selective ship inhibitors for treating disease” (THE RESEARCH FOUNDATION FOR THE STATE UNIVERSITY OF NEW YORK, priority 2018, dated 2024)
